{"source": "paper PMC4257840", "about": "(Journal of Medicinal Chemistry, 2014)", "key": {"[1]": {"molecular_target": "T1, human recombinant caspase 9 (Homo sapiens, UniProt P55211)", "T1 construct": "host or cells: E. coli", "T1 sequence (P55211 1-315 limits assumed)": "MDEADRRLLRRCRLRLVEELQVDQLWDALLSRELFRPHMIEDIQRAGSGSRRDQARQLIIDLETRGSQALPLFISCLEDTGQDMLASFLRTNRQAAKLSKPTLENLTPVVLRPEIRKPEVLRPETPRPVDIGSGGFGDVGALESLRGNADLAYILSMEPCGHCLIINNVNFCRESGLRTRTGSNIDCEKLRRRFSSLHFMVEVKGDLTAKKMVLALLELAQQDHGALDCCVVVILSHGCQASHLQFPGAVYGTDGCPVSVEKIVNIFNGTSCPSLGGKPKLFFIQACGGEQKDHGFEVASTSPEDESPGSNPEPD", "T1 sequence (P55211 331-416 limits assumed)": "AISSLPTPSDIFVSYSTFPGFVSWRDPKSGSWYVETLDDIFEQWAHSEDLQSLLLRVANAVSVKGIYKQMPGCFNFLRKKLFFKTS", "test": "Protease counter-screening: Caspase 9", "assay_type": "biochemical", "experimental": "(§1) Appendix 7. Protease Counter -Screening\n(§2) Protease counter-screeni ng was performed using the methods described below. Initial screening was conducted in duplicate using a single test substance concentration of 10 µ M .\n(§3) Additional assays were conducted in replicate for selected pairin gs of test s ubstance and enz yme in order to enable the determination of IC50 values using conventional procedures.\n(§4) Determination of K i was made using the Batch K i program (Biokin Ltd, Pullman, WA) to derive values from the Morrison equation: […]\n(§5) Where [E ] is the active enz yme concentration, Kiapp is the apparent inhibition const ant, v 0 is the control velocit y in the absence of inhibitors, vb is the background velocity, v is the initial reaction velocit y in the presence of inhibitor, and I is the inhibitor concentration.Thence:\nWhere [S ] is the substrate concentration and KM is the Michealis constant. […]\nby addition of 50 µM Ac-DEVD-AMC for another 60 min incubation period. The amount of AMC formed was determined fluorimetricall y (excitation 360 nm/emission 465 nm). […]\nby addition of 25 µM Ac-LEH D-A FC for another 60 min incubation period. The amount of amino-4- trifluorometh ylcoumarin (AFC) formed determined fluorimetrically (400nm/ 510nm).\nCathepsin C: Cathepsin C from bovine spleen was used as the source of enz yme. […] T he amount of AMC product formed was read spectrofluorimetrically"}, "[2]": {"test": "Pharmacokinetics after oral and iv dosing to rats", "assay_type": "in vivo, Sprague-Dawley rat", "conditions": "rat", "experimental": "(§6) Appendix 2. Pharmaco kinetics an d P l a s ma Protein Binding […]\nPharma cokinetics. In vivo PK characteristics were determined using non- fasted Sprague-Dawle y rats (mal e, 200-300 g, 10- 16 weeks of age) with groups of three animals per route per compound. Soluble formulations were developed and verified b y HP LC/UV s o that compounds were dosed discretel y b y the iv (1 mg/kg, 1 mL/kg) and po (5 mg/kg, 5 mL/kg) routes. Blood samples were obtained at various times after dosing and plasma prepared for LC -MS-MS quantification of the test substance after inclusion of an intern al standard . PK p aramet ers were calculated usin g a non -compartmental model in WinNonlin v5.2.\n(§7) Plasma Protein Binding Assay. PPB was determined with a Rapid Equilibrium Dialysis device using 8 kDa molecular weight cut-off inserts (Fisher Scientific UK Ltd, Leicest ershire, UK) as described b y the manufacturer. R at (Sprague Dawl e y strain) plasma EDTA K2 (mixed gender, pooled, SeraLab, West Sussex, UK) was thawed and centrifuged at 13,000 x g for 10 min to remove precipitates before being spiked with compounds (5 µM). The concentrations of compounds in the plasma and buffer chambers were determined b y LC -MS-MS (AB Sciex 3200 QTrap) anal ysis after 4 h incubation at 37 °C. Binding was calculated from the concentration percentage in both chambers as shown below. Assays were p erfo rmed in replicate and the data"}, "[3]": {"molecular_target": "T2, Human recombinant cathepsin L2 (Homo sapiens, UniProt O60911)", "T2 construct": "host or cells: NS0 cells", "T2 sequence (O60911 114-334)": "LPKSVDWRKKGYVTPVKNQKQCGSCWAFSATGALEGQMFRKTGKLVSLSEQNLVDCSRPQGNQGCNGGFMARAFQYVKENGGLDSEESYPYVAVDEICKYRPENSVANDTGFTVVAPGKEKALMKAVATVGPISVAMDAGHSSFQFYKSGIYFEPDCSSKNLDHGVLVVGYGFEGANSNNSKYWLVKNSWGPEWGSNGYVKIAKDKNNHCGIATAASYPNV", "test": "Protease counter-screening: Cathepsin L2", "assay_type": "biochemical", "experimental": "as §1, §2, §3, §4, §5\n(§8) Where [S ] is the substrate concentration and KM is the Michealis constant.\n(§9) Caspase 1: Activity against human recombinant caspase 1 expressed in E. coli was tested using Ac-YVAD- AMC as the substrate. Test compound or vehicle was pre- incubated with 600 […]\n(§10) followed by excitation/emission at 485/535 nm. […]\n(§11) AMC formation was read at 360 nm/465 nm.\n(§12) Cathepsin L2: Human recombinant cathepsin L2 expressed in NS0 cells was used as the enzyme source. […] Form ation of AMC was measured at 360 […]\n(§13) The amount of AMC formed was read spectrofluorimetricall y at 360 nm/465 nm. […]"}, "Human pancreatic trypsin": {"tested_on": "Human pancreatic trypsin", "test": "Protease counter-screening: Trypsin", "assay_type": "biochemical", "conditions": "10 µM", "experimental": "as §1, §2, §3, §4, §5, §8, §9, §10, §11, §12, §13"}, "[4]": {"test": "Plasma protein binding, Rapid Equilibrium Dialysis", "assay_type": "in vitro ADME", "conditions": "both sexes, Sprague Dawley, plasma (EDTA K2, pooled), rat plasma, 4 h at 37 °C, read-out: PPB (converted)", "experimental": "as §6, §7"}}}
{"smiles": "CC(C)[C@H](NC(=O)[C@H](C)NC(=O)[C@@H](NC(=O)c1ccccc1)C(C)(C)C)C(=O)C(=O)NCc1ccccc1", "note": "[Compound 38, N-{(S)-1-[(S)-1-((S)-1-Benzylaminooxalyl-2-methyl-propylcarbamoyl)-ethylcarbamoyl]-2,2-dimethyl-propyl}-benzamide]", "values": [{"measurement": "inhibition at 10 µM", "setting": "[1]", "value": 0, "unit": "%"}, {"measurement": "Cmax", "setting": "[2]; male, Sprague-Dawley, plasma, 5 mg/kg po, mean ± SE, n = 3", "value": "732 ± 3", "unit": "nM"}, {"measurement": "bioavailability", "setting": "[2]; male, Sprague-Dawley, plasma, po, 5 mg/kg, 5 mg/kg po compared with 1 mg/kg iv, nonfasted Sprague–Dawley rats, mean ± SE, n = 3, read-out: F % (bioavailability)", "value": "33 ± 8", "unit": "%"}, {"measurement": "free conc Cmax", "setting": "[2]; 5 mg/kg po", "value": "29 ± 0", "unit": "nM"}, {"measurement": "IC50", "setting": "[3]", "value": 3.53, "unit": "µM"}, {"measurement": "Trypsin inhibition", "setting": "Human pancreatic trypsin", "value": 9, "unit": "%"}, {"measurement": "fraction unbound at 4 h, 5 µM", "setting": "[4]", "value": 0.04}]}
